# Experimental data reported in patent publication US9682995B2, “Amino-substituted isothiazoles” (BAYER PHARMA AKTIENGESELLSCHAFT, priority 2013, dated 2017).
# Legend:
# [1] = system: spindle assembly checkpoint; test: SAC-Formation - Paclitaxel-Induced Assay; format: cell-based; settings: Homo sapiens; HeLa cells, paclitaxel 0.05 μM, 24 h, phosphorylated histone H3 on serine 10
# Procedure, shortened: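 HeLa cells were plated overnight, then given paclitaxel (0.05 μM final) plus compound (0.005-20 μM, 0.5% DMSO) for 24 h at 37° C. Fixed cells were stained for phospho-histone H3 Ser10 and with Hoechst, then imaged to give mitotic index. A fall in mitotic cells marks SAC breakthrough, and values were fit with a four-parameter Hill equation.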
# [2] = biological target: human kinase Mps-1 (Homo sapiens (Human), UniProt P33981); test: Mps-1 kinase assay (TR-FRET); format: biochemical; settings: 10 μM ATP; read-out: Mps1 avg (IC50 [mol/l])
# Chain of human kinase Mps-1 (P33981 whole entry): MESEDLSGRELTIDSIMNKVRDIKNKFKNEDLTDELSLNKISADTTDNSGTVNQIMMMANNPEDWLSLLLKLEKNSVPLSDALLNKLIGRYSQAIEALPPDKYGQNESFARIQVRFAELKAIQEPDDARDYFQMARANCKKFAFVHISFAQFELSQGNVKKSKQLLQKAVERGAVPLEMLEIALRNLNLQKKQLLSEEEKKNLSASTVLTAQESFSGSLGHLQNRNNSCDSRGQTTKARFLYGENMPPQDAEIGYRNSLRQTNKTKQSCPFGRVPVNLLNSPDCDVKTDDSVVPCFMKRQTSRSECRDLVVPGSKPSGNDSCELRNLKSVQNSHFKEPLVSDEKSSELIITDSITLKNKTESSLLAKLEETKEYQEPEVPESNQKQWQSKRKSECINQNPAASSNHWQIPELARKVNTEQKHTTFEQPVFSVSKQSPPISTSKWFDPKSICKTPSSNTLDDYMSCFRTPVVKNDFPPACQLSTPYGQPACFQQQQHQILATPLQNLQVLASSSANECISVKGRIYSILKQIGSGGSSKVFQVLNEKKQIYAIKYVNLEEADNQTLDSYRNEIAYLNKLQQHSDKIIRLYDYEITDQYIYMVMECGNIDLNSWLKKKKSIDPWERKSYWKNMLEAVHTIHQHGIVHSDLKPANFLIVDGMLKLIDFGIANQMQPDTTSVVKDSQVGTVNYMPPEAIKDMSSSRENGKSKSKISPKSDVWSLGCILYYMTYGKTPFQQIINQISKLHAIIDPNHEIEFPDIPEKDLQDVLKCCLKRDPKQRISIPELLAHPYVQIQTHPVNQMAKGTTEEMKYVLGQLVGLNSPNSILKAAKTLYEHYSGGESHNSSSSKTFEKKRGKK
# Procedure, shortened: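 GST-tagged full-length human Mps-1 (~0.5 nM) preincubated 15 min with compound, then reacted 60 min at 22 °C with 10 μM ATP and 1 μM biotinylated peptide in Hepes pH 7.7 buffer. Phosphoproduct detected by TR-FRET (Eu anti-phospho-Ser/Thr, SA-XLent); 665/620 ratio normalised to no-inhibitor and no-enzyme controls.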
IC50 [1] [µM],IC50 [2] [µM],Compound
5.6,> 20,"COc1ccc(NC(=O)c2c(C)nsc2Nc2cnc3ccccc3n2)cn1 [Example 94, N-(6-Methoxypyridin-3-yl)-3-methyl-5-(quinoxalin-2-ylamino)-1,2-thiazole-4-carboxamide]"
5.1,> 20,"CCc1ccccc1NC(=O)c1c(C)nsc1Nc1ncccc1C(F)(F)F [Example 3, N-(2-Ethylphenyl)-3-methyl-5-{[3-(trifluoromethyl)pyridin-2-yl]amino}-1,2-thiazole-4-carboxamide]"
0.09,> 20,"COC(=O)c1cncc(Nc2snc(C)c2C(=O)Nc2ccc(F)c(F)c2)n1 [Example 66, Methyl 6-({4-[(3,4-difluorophenyl)carbamoyl]-3-methyl-1,2-thiazol-5-yl}amino)-pyrazine-2-carboxylate]"
0.01,> 20,Cc1cncc(Nc2snc(C)c2C(=O)Nc2ccc(F)c(F)c2)n1 [Example 69]
0.058,> 20,"CNC(=O)c1cnc(Nc2snc(C)c2C(=O)Nc2ccc(F)c(F)c2)cn1 [Example 75, 5-({4-[(3,4-Difluorophenyl)carbamoyl]-3-methyl-1,2-thiazol-5-yl}amino)-N-methylpyrazine-2-carboxamide]"
0.34,> 20,"Cc1nsc(Nc2cnc3cc(C(F)(F)F)ccc3n2)c1C(=O)Nc1ccc(Cl)c(Cl)c1 [Example 61, N-(3,4-Dichlorophenyl)-3-methyl-5-{[6-(trifluoromethyl)quinoxalin-2-yl]amino}-1,2-thiazole-4-carboxamide]"
4.7,> 20,"CNC(=O)c1ccc(Nc2snc(C)c2C(=O)Nc2ccc(F)c(F)c2)nn1 [Example 80, 6-({4-[(3,4-Difluorophenyl)carbamoyl]-3-methyl-1,2-thiazol-5-yl}amino)-N-methylpyridazine-3-carboxamide]"
0.052,> 20,"COc1ccc(NC(=O)c2c(C)nsc2Nc2cnc(C(F)(F)F)cn2)cn1 [Example 85, N-(6-methoxypyridin-3-yl)-3-methyl-5-{[5-(trifluoromethyl)pyrazin-2-yl]amino}-1,2-thiazole-4-carboxamide]"
0.065,> 20,"COc1ccc(NC(=O)c2c(C)nsc2Nc2cncc(C(F)(F)F)n2)cn1 [Example 84, N-(6-methoxypyridin-3-yl)-3-methyl-5-{[6-(trifluoromethyl)pyrazin-2-yl]amino}-1,2-thiazole-4-carboxamide]"
0.0093,> 20,"Cc1nsc(Nc2ccc(C(F)(F)F)nn2)c1C(=O)Nc1ccc(F)c(F)c1 [Example 83, N-(3,4-Difluorophenyl)-3-methyl-5-{[6-(trifluoromethyl)pyridazin-3-yl]amino}-1,2-thiazole-4-carboxamide]"
0.033,> 20,"Cc1nsc(Nc2ccc(C#N)cn2)c1C(=O)Nc1ccc(Cl)c(Cl)c1 [Example 62, 5-[(5-Cyanopyridin-2-yl)amino]-N-(3,4-dichlorophenyl)-3-methyl-1,2-thiazole-4-carboxamide]"
2.3,> 20,"COc1ccc(NC(=O)c2c(C)nsc2Nc2nc3ccc(C)cc3s2)cn1 [Example 90, N-(6-Methoxypyridin-3-yl)-3-methyl-5-[(6-methyl-1,3-benzothiazol-2-yl)amino]-1,2-thiazole-4-carboxamide]"
0.36,> 20,"Cc1nsc(Nc2cncc(-c3ncco3)n2)c1C(=O)Nc1ccc(Cl)c(F)c1 [Example 63, N-(4-Chloro-3-fluorophenyl)-3-methyl-5-{[6-(1,3-oxazol-2-yl)pyrazin-2-yl]amino}-1,2-thiazole-4-carboxamide]"
0.91,16,"CCNc1cncc(Nc2snc(C)c2C(=O)Nc2ccc(F)c(F)c2)n1 [Example 78, N-(3,4-Difluorophenyl)-5-{[6-(ethylamino)pyrazin-2-yl]amino}-3-methyl-1,2-thiazole-4-carboxamide]"
0.26,> 20,"COC(=O)c1cnc(Nc2snc(C)c2C(=O)Nc2ccc(F)c(F)c2)cn1 [Example 59, Methyl 5-({4-[(3,4-difluorophenyl)carbamoyl]-3-methyl-1,2-thiazol-5-yl}amino)-pyrazine-2-carboxylate]"
2.3,> 20,"COc1ccc(NC(=O)c2c(C)nsc2Nc2nc3cccnc3s2)cn1 [Example 89, N-(6-Methoxypyridin-3-yl)-3-methyl-5-([1,3]thiazolo[5,4-b]pyridin-2-ylamino)-1,2-thiazole-4-carboxamide]"
